Test results reported in the supplement of paper PMC10307832.

What follows are cell lines tested with COC1=C(C=C(C=C1)C2=CC3=NC=CN3C(=N2)NC4=C(C=CC=N4)C(=O)N)OC [BAY61-3606] + COc1cccc2cc(-c3nc([C@H]4CC[C@H](C(=O)O)CC4)n4ncnc(N)c34)[nH]c12 [OSI-027] (partner 0.5 µM) (assay: relative viability (nuclei count vs DMSO), 5 days (fraction); higher = more cells survive). Settings: first compound 0.02 µM.
Summary of the method: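 Dosing by pin tool came one day after lung cancer cell lines were seeded in 1536-well plates, using either one drug or a fixed anchor-drug dose plus five library-drug doses (not always all listed) in √10 steps. After 5 days, nuclei were counted on 4× images. Relative viability is treated-well nuclei count divided by vehicle-well nuclei count, and values are medians of duplicate plates.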

Compared with HARA, SW 900 is higher in relative viability: 0.554 for the first, 0.616 for the second.

Going from HCC-827 to NCI-H520, the relative viability falls from 0.698 to 0.247.

Compared with LOU-NH91, NCI-H2023 is lower in relative viability: 0.743 for the first, 0.471 for the second.

Going from A-427 to NCI-H647, the relative viability rises from 0.538 to 0.648.

Going from NCI-H1755 to NCI-H650, the relative viability falls from 0.743 to 0.509.

First: NCI-H3122
Second: NCI-H441
The relative viability of the first is higher: 1.02 for the first, 0.587 for the second.

Going from NCI-H1395 to 201T, the relative viability rises from 0.721 to 0.759.

Compared with NCI-H1975, HOP-62 is higher in relative viability: 0.797 for the first, 0.859 for the second.

Compared with NCI-H2405, NCI-H1355 is lower in relative viability: 0.676 for the first, 0.409 for the second.

First: NCI-H838
Second: CAL-12T
The relative viability of the first is lower: 0.456 for the first, 0.674 for the second.

First: NCI-H1666
Second: EPLC-272H
The relative viability of the first is higher: 0.817 for the first, 0.269 for the second.

Compared with NCI-H2347, NCI-H1915 is higher in relative viability: 0.492 for the first, 0.623 for the second.

Going from NCI-H1437 to NCI-H460, the relative viability falls from 0.941 to 0.781.

Compared with NCI-H1792, NCI-H2085 is higher in relative viability: 0.756 for the first, 0.868 for the second.

First: HCC-15
Second: NCI-H1944
The relative viability of the first is higher: 0.704 for the first, 0.403 for the second.

Work on EKVX yielded a relative viability of 0.862.

Same assay, conditions: first compound 0.06325 µM

Compared with HARA, SW 900 is higher in relative viability: 0.463 for the first, 0.529 for the second.

Going from HCC-827 to NCI-H520, the relative viability falls from 0.845 to 0.364.

Going from LOU-NH91 to NCI-H2023, the relative viability falls from 0.725 to 0.359.

First: A-427
Second: NCI-H647
The relative viability of the first is lower: 0.44 for the first, 0.567 for the second.

First: PC-3 [JPC-3]
Second: NCI-H1755
The relative viability of the first is higher: 0.756 for the first, 0.657 for the second.

Compared with NCI-H650, NCI-H3122 is higher in relative viability: 0.532 for the first, 0.922 for the second.

Going from NCI-H441 to NCI-H1395, the relative viability falls from 0.713 to 0.581.

Going from NCI-H1975 to HOP-62, the relative viability rises from 0.756 to 0.838.

Compared with NCI-H2405, NCI-H1355 is lower in relative viability: 0.63 for the first, 0.329 for the second.

First: NCI-H838
Second: CAL-12T
The relative viability of the first is lower: 0.36 for the first, 0.593 for the second.

First: NCI-H1666
Second: EPLC-272H
The relative viability of the first is higher: 0.84 for the first, 0.268 for the second.

Compared with NCI-H2347, NCI-H1915 is higher in relative viability: 0.365 for the first, 0.632 for the second.

Compared with NCI-H1437, NCI-H460 is lower in relative viability: 0.924 for the first, 0.672 for the second.

First: NCI-H1792
Second: NCI-H2085
The relative viability of the first is lower: 0.716 for the first, 0.901 for the second.

Going from HCC-15 to NCI-H1944, the relative viability falls from 0.613 to 0.377.

With EKVX the relative viability was 0.696.

Same assay, conditions: first compound 0.2 µM

Going from HARA to SW 900, the relative viability rises from 0.513 to 0.612.

Going from HCC-827 to NCI-H520, the relative viability falls from 0.817 to 0.364.

First: LOU-NH91
Second: NCI-H2023
The relative viability of the first is higher: 0.766 for the first, 0.37 for the second.

Compared with A-427, NCI-H647 is higher in relative viability: 0.479 for the first, 0.691 for the second.

Compared with PC-3 [JPC-3], NCI-H1755 is lower in relative viability: 0.711 for the first, 0.701 for the second.

Going from NCI-H650 to NCI-H3122, the relative viability rises from 0.439 to 0.891.

Going from NCI-H441 to NCI-H1395, the relative viability rises from 0.428 to 0.601.

Compared with 201T, NCI-H1975 is lower in relative viability: 0.703 for the first, 0.692 for the second.

Going from HOP-62 to NCI-H2405, the relative viability falls from 0.774 to 0.64.

Going from NCI-H1355 to NCI-H838, the relative viability rises from 0.374 to 0.429.

Compared with CAL-12T, NCI-H1666 is higher in relative viability: 0.616 for the first, 0.824 for the second.

Going from EPLC-272H to NCI-H2347, the relative viability rises from 0.267 to 0.457.

Compared with NCI-H1915, NCI-H1437 is higher in relative viability: 0.571 for the first, 0.921 for the second.

Going from NCI-H460 to NCI-H1792, the relative viability rises from 0.657 to 0.712.

First: NCI-H2085
Second: HCC-15
The relative viability of the first is lower: 0.711 for the first, 0.721 for the second.

Going from NCI-H1944 to EKVX, the relative viability rises from 0.363 to 0.734.

Same assay, conditions: first compound 0.6325 µM

First: HARA
Second: SW 900
The relative viability of the first is lower: 0.536 for the first, 0.747 for the second.

First: HCC-827
Second: NCI-H520
The relative viability of the first is higher: 0.803 for the first, 0.296 for the second.

Compared with LOU-NH91, NCI-H2023 is lower in relative viability: 0.719 for the first, 0.402 for the second.

Going from A-427 to NCI-H647, the relative viability falls from 0.542 to 0.423.

First: PC-3 [JPC-3]
Second: NCI-H1755
The relative viability of the first is higher: 0.787 for the first, 0.712 for the second.

Compared with NCI-H650, NCI-H3122 is higher in relative viability: 0.495 for the first, 1.27 for the second.

Compared with NCI-H441, NCI-H1395 is higher in relative viability: 0.557 for the first, 0.635 for the second.

Going from 201T to NCI-H1975, the relative viability falls from 0.661 to 0.635.

Compared with HOP-62, NCI-H2405 is lower in relative viability: 0.786 for the first, 0.756 for the second.

Going from NCI-H1355 to NCI-H838, the relative viability rises from 0.377 to 0.411.

Compared with CAL-12T, NCI-H1666 is higher in relative viability: 0.605 for the first, 0.894 for the second.

First: EPLC-272H
Second: NCI-H2347
The relative viability of the first is lower: 0.329 for the first, 0.487 for the second.

Going from NCI-H1915 to NCI-H1437, the relative viability rises from 0.662 to 0.936.

Compared with NCI-H460, NCI-H1792 is higher in relative viability: 0.467 for the first, 0.644 for the second.

Compared with NCI-H2085, HCC-15 is lower in relative viability: 0.769 for the first, 0.693 for the second.

First: NCI-H1944
Second: EKVX
The relative viability of the first is lower: 0.373 for the first, 0.554 for the second.

Same assay, conditions: first compound 2 µM

Going from HARA to SW 900, the relative viability rises from 0.311 to 0.427.

Going from HCC-827 to NCI-H520, the relative viability falls from 0.787 to 0.212.

Compared with LOU-NH91, NCI-H2023 is lower in relative viability: 0.708 for the first, 0.19 for the second.

Going from A-427 to NCI-H647, the relative viability falls from 0.476 to 0.277.

Compared with PC-3 [JPC-3], NCI-H1755 is lower in relative viability: 0.704 for the first, 0.671 for the second.

Compared with NCI-H650, NCI-H3122 is higher in relative viability: 0.513 for the first, 0.847 for the second.

Going from NCI-H441 to NCI-H1395, the relative viability rises from 0.313 to 0.629.

Going from 201T to NCI-H1975, the relative viability falls from 0.512 to 0.333.

Compared with HOP-62, NCI-H2405 is lower in relative viability: 0.714 for the first, 0.65 for the second.

Compared with NCI-H1355, NCI-H838 is higher in relative viability: 0.286 for the first, 0.298 for the second.

Going from CAL-12T to NCI-H1666, the relative viability rises from 0.269 to 0.841.

Going from EPLC-272H to NCI-H2347, the relative viability falls from 0.333 to 0.281.

First: NCI-H1915
Second: NCI-H1437
The relative viability of the first is lower: 0.443 for the first, 0.784 for the second.

Going from NCI-H460 to NCI-H1792, the relative viability rises from 0.214 to 0.528.

Going from NCI-H2085 to HCC-15, the relative viability rises from 0.53 to 0.553.

Going from NCI-H1944 to EKVX, the relative viability rises from 0.352 to 0.631.
